# Laboratory results taken from patent publication US4780476A, “Azoniaspironortropanol esters as asthma therapeutics and broncholytics” (Madaus GmbH & Co., priority 1985, dated 1988).
# Where two headings read alike, the source gives them in different places.
# Tests used:
# [1] = tested on: awake guinea pig (cholinergically-induced bronchial cramps); test: inhalative provocation with acetyl-β-methylcholine chloride aerosol on awake guinea pigs (broncholytic/protective action); format: in vivo; conditions: for EC50: Cavia porcellus, read-out: EC50, average effective concentration w of acetyl-β-methylcholine chloride (provocation substance) after pre-treatment; for probit analysis reaction % observed: animals reacting with dyspnoea; for probit analysis reaction % calculated: probit regression
# Method: animal strain: Pirbright white test substance: trospium chloride (MP 194) (M.W. 428) dosage: 3×10^-7 mole ml^-1 kg^-1 mode of administration: intraperitoneally test substance: dehydrotrospium chloride (WG 71) (M.W. 426) […]
# reference substance: atropine hydrochloride (Serva; M.W. 325.8) […]
# reference substance: isoproterenol (Fluka; M.W. 247.72) dosage: […]
# further substances: acetyl-β-methylcholine chloride (Sigma; M.W. 195.7) mode of administration: 0.5 ml. min^-1 by inhalation.
# The guinea pigs intended for an experiment are, after an acclimatization time of at least 8 days, subjected twice to an aerosol of 0.1% acetyl-β-methylcholine chloride solution since, as is known from experience, during the first two inhalative provocations, the animals react with more distinct respiratory disturbances than in the case of the subsequent provocations (adaptation). If, in the case of the two inhalation phases, a nonsensitivity (absence of respiratory disturbances) is observed towards the exposure, these animals are excluded from the actual experiment.
# For the purpose of aerosol provocation, the guinea pigs are placed individually in an inhalation chamber (see Section 3.6 hereinafter) in which 0.5 ml. of solution per minute are atomized as droplet aerosol by means of a special nozzle (Rhema, Hofheim, Germany). […] With the help of a stopwatch, there is recorded the time from the commencement of inhalation to the appearance of the asphyctic state; the animals are immediately removed from the inhalation chamber and, as a rule, recover in a very short period of time (recovery of consciousness and normalization of breathing). If, within 180 seconds, no dysponea occurs, the inhalation is discontinued.
# One aerosol concentration is tested per test day; the time between the individual aerosol provocations is at least 1 week.
# The inhalation chamber is a Plexiglass container specially made for this purpose, the lid of which can be closed in an air-tight manner by means of rubber sealing and grip closure means. The internal measurements of the chamber are 285×190×180 mm., which corresponds to a volume of about 9.75 liters. The special nozzle (Rhema, Hofheim, Germany, order No. 504104) is fixed to a recess on the lid and ensures a uniform supply of the available chamber space with the aerosol. The provocation solution is supplied to the nozzle via an infusion pump (Braun, Melsungen, Germany) (0.5 ml./minute) and there atomized with a superpressure of 180 kPa from an attached pressure gas bottle (artificial air, KW-free). For reasons of safety, the aerosol provocation is carried out under a ventilator.
# The EC50, as well as the related confidence interval (p>95%), are determined from the probit regression lines of the percentage values (v. supra) provided with weight coefficients after line adaptation by the "maximum likelihood" method (10 iterations). Furthermore, there is examined the adaptation of the lines to the observed data by means of the chiquadrat test. For the evaluation, a calculation programme is commercially available (Olivetti).
# [2] = target: T1, isolated tracheal spirals of the guinea pig (Cavia porcellus, UniProt H0W1Z3); test: anticholinergic effectiveness on isolated tracheal spirals (antagonism against acetyl-β-methylcholine chloride); conditions: for antagonism against acetyl-β-methylcholine chloride / anticholinergic effectiveness (in words): isolated guinea pig tracheal spirals
# T1 construct: the whole of the trachea is roughly freed beginning from the larynx up to the tracheal bifurcation, removed and transferred; from tissue; host or cells: isolated trachea (spiral strips) of male Pirbright white guinea pigs
# Source text: (§1) A model for this is the measurement of the anticholinergic effectiveness on isolated tracheal spirals of the guinea pig.
# (§2) The test substance used was 3α-benziloyloxynortropane-8-spiro-1'-pyrrolidinium chloride (trospium chloride; MP 194), ipratropium bromide being used as comparison substance.
# (§3) There is to be determined the anticholinergic effectiveness of MP 194 in comparison with the reference substance ipratropium bromide on the isolated tracheal spirals of the guinea pig.
# (§4) 3.1.1. animal species: guinea pig
# (§5) 3.1.2. animal strain: Pirbright white
# (§6) 3.3.1. test substance (test antagonist) trospium chloride (MP 194) (M.W. 428)
# (§7) 3.3.2. reference substance (reference antagonist) ipratropium bromide (Atrovent) (M.W. 412.4)
# (§8) 3.3.3.1. acetyl-β-methylcholine chloride (Sigma) (M.W. 195.7)
# (§9) The guinea pig is stunned by a blow on the neck. Subsequently, the whole of the trachea is roughly freed beginning from the larynx up to the tracheal bifurcation, removed and transferred to tempered (37° C.) and carbogenized tyrode solution. After surrounding connective tissue has been removed as far as possible, the preparation is cut up spirally by means of fine scissors at an angle of about 45° and separated into two equal sized sections. After weighing, both preparations are provided proximally and distally with a silk thread. One thread serves for fixing the preparation by means of a loop to the bottom of the bath and the other is connected via a hook with the transducer above the bath vessel.
# (§10) Subsequently, the preparations, corresponding to the calibration, are prestressed with about 80 mN and equilibrated from 50-100 minutes. During the equilibration phase, the nutrient solution in the bath vessels is renewed in 15 minute intervals. As soon as the resting muscle tonus of the preparation has stabilized, there takes place the cumulative addition of the agonist, whereby the addition of the next highest concentration first takes place when no further increase of contraction is recognisable (plateau). When the maximum contraction height of the preparation is achieved, the cumulative agonist addition is ended and the preparation is rinsed. After a further equilibration phase (v. supra), the cumulative addition of the agonist is repeated but this time in the presence of the test or reference antagonist.
# (§11) 3.6.1. The perfusion part consists of an L-shaped organ bath in the hollow space of which (longer limb) runs a double glass spiral through which the nutrient solution is passed into the actual bath vessel (28 ml. content; shorter limb). This bath vessel is divided into two chambers which are, however, connected together by two transverse connections. […] The inlet chambers as well as the feeding glass spirals are tempered from the outside to 37° C. by a separate liquid circulation. This tempering takes place with the help of a "Colora" ultra-thermostat type K (Colora Messtechnik GmbH, Dusseldorf, Germany) which serves as thermostat and pump. In order, in case of need, always to have available ready-for-use nutrient solution, above the organ bath is provided a double-walled storage container in which the nutrient solution is also tempered and carbogenised. This is connected via a glass stopcock and a polypropylene tube with double glass spiral in the interior of the organ bath.
# (§12) 3.6.2. The measurement and recording part includes a transducer (Statham-Universal-Zelle UC-2; Hugo Sachs Elektronic KG, Hugstetten, Germany). By means of a hanging-in weight, a force of 40 mN is produced on the transducer which passes as electrical signal via a connecting cable to a bridge amplifier. The amplification is smoothly so regulated that the force provided corresponds to a constant value on the scale or an analogous value on the millimeter paper of the recorder (dependent upon the amplification; see below). After fixing the organ, the preparation is prestressed to the doubled mark, corresponding to 80 mN. […]
# [3] = tested on: T2, isolated tracheal spirals of the guinea pig (Cavia porcellus); test: as above; conditions: ratio of maximum agonist effect in presence (EAmB) and absence (EAm) of antagonist
# T2 construct: the whole of the trachea is roughly freed beginning from the larynx up to the tracheal bifurcation, removed and transferred; from tissue; host or cells: isolated trachea (spiral strips) of male Pirbright white guinea pigs
# Source text: as §1, §2, §3, §4, §5, §6, §7, §8, §9, §10, §11, §12
# [4] = acetyl-β-methylcholine chloride w=0.001000, 10 tested (isoproterenol 9), pre-treatment 3×10^-7 mol ml^-1 kg^-1 i.p.
# [5] = acetyl-β-methylcholine chloride w=0.001000, pre-treatment 3×10^-7 mol ml^-1 kg^-1 i.p.
# [6] = acetyl-β-methylcholine chloride w=0.001780, pre-treatment 3×10^-7 mol ml^-1 kg^-1 i.p.
# [7] = acetyl-β-methylcholine chloride w=0.001780, trospium chloride 10 tested, dehydrotrospium chloride 9, atropine 9, isoproterenol 8, pre-treatment 3×10^-7 mol ml^-1 kg^-1 i.p.
# [8] = acetyl-β-methylcholine chloride w=0.003160, 10 tested (isoproterenol 9), pre-treatment 3×10^-7 mol ml^-1 kg^-1 i.p.
# [9] = acetyl-β-methylcholine chloride w=0.003160, pre-treatment 3×10^-7 mol ml^-1 kg^-1 i.p.
# [10] = acetyl-β-methylcholine chloride w=0.005620, 10 tested (isoproterenol 9), pre-treatment 3×10^-7 mol ml^-1 kg^-1 i.p.
# [11] = acetyl-β-methylcholine chloride w=0.005620, pre-treatment 3×10^-7 mol ml^-1 kg^-1 i.p.
# T1 sequence (H0W1Z3 1-590): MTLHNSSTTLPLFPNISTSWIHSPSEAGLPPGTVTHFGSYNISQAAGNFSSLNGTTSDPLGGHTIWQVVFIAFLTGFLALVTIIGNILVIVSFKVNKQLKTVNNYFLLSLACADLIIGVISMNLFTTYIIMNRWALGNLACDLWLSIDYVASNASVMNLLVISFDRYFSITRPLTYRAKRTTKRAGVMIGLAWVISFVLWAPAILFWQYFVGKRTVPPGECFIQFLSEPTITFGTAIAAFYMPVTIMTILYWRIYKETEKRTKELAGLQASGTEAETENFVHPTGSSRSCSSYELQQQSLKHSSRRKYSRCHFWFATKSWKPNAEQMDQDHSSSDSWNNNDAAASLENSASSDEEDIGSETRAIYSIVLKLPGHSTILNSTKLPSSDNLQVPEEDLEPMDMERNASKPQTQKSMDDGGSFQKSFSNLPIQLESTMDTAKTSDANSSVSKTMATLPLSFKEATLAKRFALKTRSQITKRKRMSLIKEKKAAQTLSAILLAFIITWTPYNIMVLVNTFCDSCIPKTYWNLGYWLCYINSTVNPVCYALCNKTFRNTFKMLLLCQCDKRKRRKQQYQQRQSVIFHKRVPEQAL
# T2 sequence (H0W1Z3 1-590): as above
SMILES,"number of animals reacting [1, 4]","probit analysis reaction % observed [1, 5] [%]","probit analysis reaction % calculated [1, 5] [%]","probit analysis reaction % observed [1, 6] [%]","probit analysis reaction % calculated [1, 6] [%]","number of animals reacting [1, 7]","number of animals reacting [1, 8]","probit analysis reaction % observed [1, 9] [%]","probit analysis reaction % calculated [1, 9] [%]","number of animals reacting [1, 10]","probit analysis reaction % observed [1, 11] [%]","probit analysis reaction % calculated [1, 11] [%]",other results
"O=C(OC1CC2CCC(C1)[N+]21CC=CC1)C(O)(c1ccccc1)c1ccccc1 (stereo not drawn) [dehydrotrospium chloride, 3α-benziloyloxynortropane-8-spiro-1'-(3'-pyrrolinium)chloride]",3,30.00,38.74,66.67,50.60,6,6,60.00,62.35,7,70.00,73.08,"broncholytic effectiveness compared with atropine and isoproterenol (in words) ([1]; 15 min after i.p. administration, equimolar dosages): comparable with or superior to the well known parasympatholytics atropine and the β-sympathomimetic isoproterenol; EC50 [1]: 1730 µg/mL; broncholytic effect (in words) ([1]; intraperitoneal, cholinergically-induced bronchial cramps, awake guinea pig): outstanding broncholytic effect"
"CC(C)[N+]1(C)C2CCC1CC(OC(=O)C(CO)c1ccccc1)C2 (stereo not drawn) [ipratropium bromide, reference compound]",–,–,–,–,–,–,–,–,–,–,–,–,"Kb ([2]; antagonism against acetyl-β-methylcholine chloride, read-out: pA2 ± s (converted)): 0.49 nM; quality of the antagonism (in words) ([2]; comparison of maximum effects in absence and presence of the antagonist): competitive antagonism; antagonism against acetyl-β-methylcholine chloride / anticholinergic effectiveness (in words) [2]: comparable, dosage-dependent antagonism; antagonism against acetyl-β-methylcholine chloride / anticholinergic effectiveness (in words) ([2]; listed as epratropium bromide): dosage dependent antagonism; EAmB/EAm ± s [3]: 1.10 ± 0.24"
"CC(C)NCC(O)c1ccc(O)c(O)c1 (stereo not drawn) [isoproterenol, reference compound]",3,33.33,36.21,62.50,57.88,5,7,77.78,77.28,8,88.89,90.30,"EC50 ([1]; pre-treatment 3×10^-7 mol ml^-1 kg^-1 i.p., 15 min before inhalation, w of acetyl-β-methylcholine chloride in atomised solution, control animals w=0.000539, higher = more protection): 1450 µg/mL"
